Reference: ChEMBL document CHEMBL5370532, “Selective Estrogen receptor degraders (SERDs) for the treatment of breast cancer: An overview” (Eur J Med Chem, 2023)

What was measured:
[1] = system: MCF7; assay: Antiproliferative activity against 17beta-estradiol stimulated human MCF7 cells assessed as inhibition of cell growth incubated for 5 to 7 days by fluorescence based assay; format: functional
[2] = system: MCF7; assay: Antiproliferative activity against human MCF7 cells assessed as inhibition of cell growth incubated for 48 hrs by MTT assay; format: functional, cell-based; details: MCF7, 48 h
[3] = system: Ishikawa; assay: Antiproliferative activity against human Ishikawa cells assessed as inhibition of cell growth incubated for 48 hrs by MTT assay; format: functional, cell-based
[4] = system: MCF7; assay: Antiproliferative activity against human MCF7 cells assessed as inhibition of cell growth incubated for 48 hrs by CCK-8 assay; format: functional, cell-based; details: MCF7, 48 h
[5] = In vivo antagonist activity against E2-mediated uterine stimulation in Sprague-Dawley rat administered orally or subcutaneously once daily for 3 days; format: functional, organism-based
[6] = Downregulation of ER expression in human MCF7 cells incubated for 48 hrs by ELISA; format: functional, cell-based; details: MCF7, 48 h
[7] = molecular target: Estrogen receptor beta (Homo sapiens, UniProt Q92731); assay: Inhibition of ERbeta (unknown origin) incubated for 4 hrs by fluorescence polarization assay
Sequence of Estrogen receptor beta (Q92731 whole entry): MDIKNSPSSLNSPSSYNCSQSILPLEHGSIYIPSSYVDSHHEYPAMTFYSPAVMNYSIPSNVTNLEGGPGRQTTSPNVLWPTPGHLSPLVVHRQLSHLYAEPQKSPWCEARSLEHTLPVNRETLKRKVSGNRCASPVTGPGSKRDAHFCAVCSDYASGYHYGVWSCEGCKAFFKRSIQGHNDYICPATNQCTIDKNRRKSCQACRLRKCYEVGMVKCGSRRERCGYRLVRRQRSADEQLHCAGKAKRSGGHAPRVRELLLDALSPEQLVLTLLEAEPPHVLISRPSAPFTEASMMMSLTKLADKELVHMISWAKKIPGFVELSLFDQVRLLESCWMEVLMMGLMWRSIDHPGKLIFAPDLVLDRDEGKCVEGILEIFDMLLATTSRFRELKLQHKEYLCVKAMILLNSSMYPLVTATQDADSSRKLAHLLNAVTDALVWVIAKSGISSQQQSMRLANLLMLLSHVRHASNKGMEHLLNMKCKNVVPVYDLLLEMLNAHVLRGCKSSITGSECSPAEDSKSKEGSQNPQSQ

[8] = Cmax in Sprague-Dawley rat at 10 mg/kg, po via gavage for 2 hrs by UHPLC analysis; format: ADME, organism-based; parameters: dose 10 mg/kg, time 2 hrs, route po; details: in vivo
[9] = Observed AUC (0 to infinity) in Sprague-Dawley rat at 10 mg/kg, po via gavage for 2 hrs by UHPLC analysis; format: ADME, organism-based; parameters: dose 10 mg/kg, time 2 hrs, route po; details: in vivo
[10] = Half life in Sprague-Dawley rat at 10 mg/kg, po via gavage for 2 hrs by UHPLC analysis; format: ADME, organism-based; details: in vivo

SMILES: CC1=C(c2ccc(O)cc2)[C@H](c2ccc(OCCN3CC[C@@H](C)C3)cc2)Oc2cc(O)ccc21
- IC50 [1]: 7.2 nM

SMILES: O=C(/C=C\c1ccc(-c2nc(-c3ccc(O)cc3)nc(-c3ccc(O)cc3)n2)cc1)NCCCO
- IC50 [2]: 3150 nM
- IC50 [3]: 3110 nM

SMILES: COc1ccc(C(=O)C2=C(Oc3ccc(/C=C/C(=O)O)cc3)c3ccc(O)cc3OC2)cc1
- IC50 [4]: 800 nM

SMILES: CCNCCc1ccc(CN(CC)c2cc(OC)ccc2[C@@H]2CCc3cc(O)ccc3C2)cc1 [ELACESTRANT]
- EC50 [5]: 0.3 mg/kg
- EC50 [6]: 0.6 nM
- IC50 [7]: 870 nM

SMILES: C[C@]12CC[C@@H]3c4ccc(B(O)O)cc4C[C@@H](CCCCCCCCC[S+]([O-])CCCC(F)(F)C(F)(F)F)[C@H]3[C@@H]1CC[C@@H]2O (stereo not given in full) [ZB-716]
- Cmax [8]: 158 ng/mL
- AUC(0-inf) [9]: 1450 ng·h/mL
- half-life [10]: 17 h
